The source made the active and inactive calls. The rule behind the calls is not given here.
Key:
Histone deacetylase 8 = target: T1, Histone deacetylase 8 (Homo sapiens, UniProt Q9BY41); assay: Inhibition of HDAC8 (unknown origin)
T1 sequence (Q9BY41 whole entry): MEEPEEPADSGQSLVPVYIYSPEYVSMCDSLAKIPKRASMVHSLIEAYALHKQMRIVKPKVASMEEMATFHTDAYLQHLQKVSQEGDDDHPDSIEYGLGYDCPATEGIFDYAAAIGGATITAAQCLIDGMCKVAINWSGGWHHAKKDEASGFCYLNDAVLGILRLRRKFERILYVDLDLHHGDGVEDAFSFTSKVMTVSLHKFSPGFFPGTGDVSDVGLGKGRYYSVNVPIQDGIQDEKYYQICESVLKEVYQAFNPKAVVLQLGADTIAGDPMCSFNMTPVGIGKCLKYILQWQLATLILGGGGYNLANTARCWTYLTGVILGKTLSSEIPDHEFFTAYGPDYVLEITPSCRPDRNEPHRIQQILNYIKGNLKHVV

PC-12 [1] = assay: Induction of neurite outgrowth in rat PC-12 cells assessed as increase in neuronal protrusions at 10 uM measured after 48 hrs by light microscopic analysis; format: functional, cell-based
SH-SY5Y = assay: Neuroprotective activity against H2O2-induced oxidative damage in human SH-SY5Y cells assessed as cell survival rate at 10 uM pretreated for 4 hrs followed by 200 uM H2O2 stimulation and measured after 24 hrs by MTT assay relative to control; format: functional; details: time 28 hrs
PC-12 [2] = assay: Neuroprotective activity against H2O2-induced oxidative damage in rat PC-12 cells assessed as increase in cell survival pretreated for 4 hrs followed by 800 uM H2O2 stimulation and measured after 24 hrs by MTT assay; format: functional, cell-based; details: dose 1-10 µM, time 28.0 hrs
PC-12 [3] = assay: Neuroprotective activity against H2O2-induced oxidative damage in rat PC-12 cells assessed as inhibition of apoptosis by measuring decrease in PARP protein expression pretreated for 4 hrs followed by H2O2 stimulation and measured after 24 hrs by Western blot analysis; format: functional, cell-based; details: dose 1-10 µM, time 28.0 hrs
PC-12 [4] = assay: (§1) Neuroprotective activity against H2O2-induced oxidative damage in rat PC-12 cells assessed as inhibition of apoptosis by measuring early apoptotic cells at 10 uM pretreated for 4 hrs followed by H2O2 stimulation and measured after 24 hrs by Annexin V-FITC/PI staining based flow cytometry analysis (reference value: 2.32%); format: functional; parameters: scale not given: the % may be the effect or the level left; details: time 28 hrs
PC-12 [5] = assay: as §1, with “late” for “early”, “10.9%)” for “2.32%)”; format: functional; parameters: scale not given: the % may be the effect or the level left; details: time 28 hrs
[6] = Antioxidant activity assessed as DPPH scavenging activity incubated for 0.5 hrs by absorbance based assay; format: functional
[7] = Antioxidant activity assessed as ABTS radical scavenging activity measured after 30 mins by absorbance based analysis; format: functional
PC-12 [8] = assay: Neuroprotective activity against H2O2-induced oxidative damage in rat PC-12 cells assessed as reduction in intracellular LDH level by measuring residual activity at 5 uM pretreated for 4 hrs followed by H2O2 stimulation and measured after 24 hrs relative to control; format: functional; details: time 28 hrs
Danio rerio = species: Danio rerio; assay: Effect on anxiety-like behavior in scopolamine induced zebrafish alzheimer disease model assessed as exploratory behavior in upper part of aquarium by measuring increase in swimming speed at 1 mg/L pretreated with scopolamine for 30 mins followed by compound addition for 3 mins by novel tank diving test; format: functional, organism-based

For O=C(NO)c1ccc(CN2CCc3c(n(CC4CC4)c4ccc(F)cc34)C2)cc1, the IC50 (Histone deacetylase 8) was 1.95 µM, the Activity (PC-12 [1]) was “Active” and the Activity (SH-SY5Y) was 78%. For the same compound, the Activity (PC-12 [2]) was “Dose-Dependent Effect”, the Activity (PC-12 [3]) was “Dose-Dependent Effect” and the Activity (PC-12 [4]) was 4.22%. The Activity (PC-12 [5]) was 3.17%, the IC50 [6] was 22.5 µM and the IC50 [7] was 10.4 µM. The Activity (PC-12 [8]) was 50.2% and the Activity (Danio rerio) was “Active”.

From ChEMBL document CHEMBL5579843, “Multimechanism biological profiling of tetrahydro-β-carboline analogues as selective HDAC6 inhibitors for the treatment of Alzheimer's disease” (Eur J Med Chem, 2024)
